Consider 34 compounds from US20240018161A1, “MODULATORS OF CYSTIC FIBROSIS TRANSMEMBRANE CONDUCTANCE REGULATOR” (VERTEX PHARMACEUTICALS INCORPORATED, priority 2020, published 2024).

Broadly, the EC50 is the concentration giving half of the maximal effect.

The target in one experiment is CFTR-mediated chloride transport in human intestinal epithelial enteroid cells (Homo sapiens, UniProt P13569). As to the kind of experiment: Membrane potential dye, Enteroid Assay A. The format is cell-based. The settings on record: enteroid cells incubated with test compound 18-24 hours; acute 10 μM forskolin and 300 nM N-[2,4-bis(1,1-dimethylethyl)-5-hydroxyphenyl]-1,4-dihydro-4-oxoquinoline-3-carboxamide; read-out: Ent. A EC50. In short, it runs like this: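 Membrane potential dye (20 μM methyl oxonol, with 30 μM CaCCinh-A01 and 30 μM Chicago Sky Blue) loaded 25 min at room temperature into ROCK-inhibitor-seeded human enteroid cells. Chloride-free stimulation buffer triggered transport, followed by 15 min fluorescence. % Activity relative to 3 μM/3 μM/300 nM triple-combination control.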
Sequence of CFTR-mediated chloride transport in human intestinal epithelial enteroid cells (P13569 with tags, fused parts or gaps DEL508-508): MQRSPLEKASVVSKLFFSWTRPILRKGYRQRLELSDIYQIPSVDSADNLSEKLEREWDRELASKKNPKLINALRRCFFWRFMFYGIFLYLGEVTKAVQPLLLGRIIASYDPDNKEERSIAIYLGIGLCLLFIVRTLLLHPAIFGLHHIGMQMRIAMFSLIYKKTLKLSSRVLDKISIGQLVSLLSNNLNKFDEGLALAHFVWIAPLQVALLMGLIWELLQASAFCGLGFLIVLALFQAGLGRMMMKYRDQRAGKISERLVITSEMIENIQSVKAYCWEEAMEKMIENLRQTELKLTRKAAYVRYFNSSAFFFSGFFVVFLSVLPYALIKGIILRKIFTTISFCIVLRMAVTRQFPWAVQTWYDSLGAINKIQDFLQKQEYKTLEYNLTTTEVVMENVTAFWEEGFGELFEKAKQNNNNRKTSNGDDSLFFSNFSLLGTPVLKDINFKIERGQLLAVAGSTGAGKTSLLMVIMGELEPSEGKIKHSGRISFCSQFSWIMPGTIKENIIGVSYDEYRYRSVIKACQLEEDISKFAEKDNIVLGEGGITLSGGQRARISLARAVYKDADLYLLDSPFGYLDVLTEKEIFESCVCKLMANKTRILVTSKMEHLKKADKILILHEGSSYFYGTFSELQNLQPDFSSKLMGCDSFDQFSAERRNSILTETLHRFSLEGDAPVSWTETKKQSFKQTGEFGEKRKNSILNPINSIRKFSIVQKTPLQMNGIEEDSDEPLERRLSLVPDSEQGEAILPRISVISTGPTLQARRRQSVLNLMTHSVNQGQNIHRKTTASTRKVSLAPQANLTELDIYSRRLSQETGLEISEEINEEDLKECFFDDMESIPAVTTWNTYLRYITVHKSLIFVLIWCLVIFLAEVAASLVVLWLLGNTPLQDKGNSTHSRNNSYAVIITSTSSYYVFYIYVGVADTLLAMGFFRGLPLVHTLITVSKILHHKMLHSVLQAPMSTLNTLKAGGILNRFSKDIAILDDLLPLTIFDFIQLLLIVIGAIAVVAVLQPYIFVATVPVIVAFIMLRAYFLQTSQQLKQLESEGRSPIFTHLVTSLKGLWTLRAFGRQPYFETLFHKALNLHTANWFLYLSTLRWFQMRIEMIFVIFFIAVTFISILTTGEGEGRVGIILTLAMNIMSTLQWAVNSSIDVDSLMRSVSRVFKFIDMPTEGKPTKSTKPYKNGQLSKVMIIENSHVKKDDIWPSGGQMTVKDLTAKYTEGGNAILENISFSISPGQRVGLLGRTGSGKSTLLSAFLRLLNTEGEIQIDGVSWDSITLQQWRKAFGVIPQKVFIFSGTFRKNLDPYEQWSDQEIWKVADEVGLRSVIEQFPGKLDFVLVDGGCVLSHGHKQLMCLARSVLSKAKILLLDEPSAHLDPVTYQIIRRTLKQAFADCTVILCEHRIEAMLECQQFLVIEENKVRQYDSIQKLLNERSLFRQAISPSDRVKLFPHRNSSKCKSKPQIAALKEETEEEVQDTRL
Regarding `Cc1cccc(C)c1-c1cc2nc(n1)NS(=O)(=O)c1cccc(c1)C(=O)N1CCN(C(=O)NC34CC5CC(CC(C5)C3)C4)C[C@@H]1CO2` [Compound 290], the EC50 was in the range of 1000 to 3000 nM.

Take `CC(=O)NCCN1CCN2C(=O)c3cccc(c3)S(=O)(=O)Nc3nc(cc(-c4c(C)cccc4C)n3)OC[C@H]2C1` [Compound 294]: the 50% effective concentration (EC50) lay within 3000 to 30000 nM. In the case of `Cc1cccc(C)c1-c1cc2nc(n1)NS(=O)(=O)c1cccc(c1)C(=O)N1CCN(CC3CCOCC3)C[C@@H]1CO2` [Compound 295], the EC50 lay within 1000 to 3000 nM. On the same count and under the same terms, as for `Cc1cccc(C)c1-c1cc2nc(n1)NS(=O)(=O)c1cccc(c1)C(=O)N1CCN(CCCC(C)(C)C)C[C@@H]1CO2` [Compound 296], the figure is less than 1000 nM; as for `Cc1cccc(C)c1-c1cc2nc(n1)NS(=O)(=O)c1cccc(c1)C(=O)N1CCN(CC3CCCCC3)C[C@@H]1CO2` [Compound 297], less than 1000 nM; as for `Cc1cccc(C)c1-c1cc2nc(n1)NS(=O)(=O)c1cccc(c1)C(=O)N1CCN(CCc3ccccc3)C[C@@H]1CO2` [Compound 299], less than 1000 nM. On to `Cc1cccc(C)c1-c1cc2nc(n1)NS(=O)(=O)c1cccc(c1)C(=O)N1CCN(C(=O)CC(C)(C)C)CC1CO2` (stereo not drawn) [Compound 307], for which the EC50 fell in the range of 3000 to 30000 nM.

On to `Cc1cccc(C)c1-c1cc2nc(n1)NS(=O)(=O)c1cccc(c1)C(=O)N1CCN(CC3CCCCC3)CC1CO2` (stereo not drawn) [Compound 309], for which the EC50 was less than 1000 nM. As to `Cc1cccc(C)c1-c1cc2nc(n1)NS(=O)(=O)c1cccc(c1)C(=O)N1CCN(CCC(C)(C)C)CC1CO2` (stereo not drawn) [Compound 310], the 50% effective concentration (EC50) was less than 1000 nM. For the compound `Cc1cccc(C)c1-c1cc2nc(n1)NS(=O)(=O)c1cccc(c1)C(=O)N1CCN(CCc3ccccc3)CC1CO2` (stereo not drawn) [Compound 311], the concentration for a half-maximal effect (EC50) is less than 1000 nM. The same measure, in the same setting: as for `Cc1cccc(C)c1-c1cc2nc(n1)NS(=O)(=O)c1cccc(c1)C(=O)N1CCN(CC3CCOCC3)CC1CO2` (stereo not drawn) [Compound 312], the figure is 1000 to 3000 nM; as for `Cc1cccc(C)c1-c1cc2nc(n1)NS(=O)(=O)c1cccc(c1)C(=O)N1CCN(CCCC(C)(C)C)CC1CO2` (stereo not drawn) [Compound 313], less than 1000 nM; as for `Cc1cccc(C)c1-c1cc2nc(n1)NS(=O)(=O)c1cccc(c1)C(=O)N1CCN(CCC3(C(F)(F)F)CC3)C(CO2)C1` (stereo not drawn) [Compound 314], less than 1000 nM. `Cc1cccc(C)c1-c1cc2nc(n1)NS(=O)(=O)c1cccc(c1)C(=O)N1CCN(C(=O)OC(C)(C)C)C[C@@H]1CO2` [Compound 315]: the 50% effective concentration (EC50) is less than 1000 nM. Still for that read-out and setting: as for `Cc1cccc(C)c1-c1cc2nc(n1)NS(=O)(=O)c1cccc(c1)C(=O)N1CCC(c3ccccc3)C(C1)O2` (stereo not drawn) [Compound 317], the figure is less than 1000 nM; as for `Cc1cccc(C)c1-c1cc2nc(n1)NS(=O)(=O)c1cccc(c1)C(=O)N1CC(NC(=O)OC(C)(C)C)CC(C1)O2` (stereo not drawn) [Compound 320], 1000 to 3000 nM; as for `Cc1cccc(C)c1-c1cc2nc(n1)NS(=O)(=O)c1cccc(c1)C(=O)N1CC(CC(C(=O)NCCC(C)(C)C)C1)O2` (stereo not drawn) [Compound 321], less than 1000 nM.

Staying with this experiment, now noted: percentage of chloride transport of triple combination control (3 μM N-[(6-amino-2-pyridyl)sulfonyl]-6-(3-fluoro-5-isobutoxy-phenyl)-2-[(4S)-2,2,4-trimethylpyrrolidin-1-yl]pyridine-3-carboxamide based).
As to `Cc1cccc(C)c1-c1cc2nc(n1)NS(=O)(=O)c1cccc(c1)C(=O)N1CCN(Cc3cocn3)C[C@@H]1CO2` [Compound 283], the “Ent. A Max Activity (%)” value is “++ (++ is 30-60%)”. In the case of `Cc1cccc(C)c1-c1cc2nc(n1)NS(=O)(=O)c1cccc(c1)C(=O)N1CCN(Cc3c[nH]cn3)C[C@@H]1CO2` [Compound 284], the “Ent. A Max Activity (%)” value is “+ (+ is <300%)”. `Cc1cccc(C)c1-c1cc2nc(n1)NS(=O)(=O)c1cccc(c1)C(=O)N1CCN(Cc3ccn(C)n3)C[C@@H]1CO2` [Compound 285]: the “Ent. A Max Activity (%)” value is “++ (++ is 30-60%)”. In the case of `Cc1cccc(C)c1-c1cc2nc(n1)NS(=O)(=O)c1cccc(c1)C(=O)N1CCN(Cc3ncccn3)C[C@@H]1CO2` [Compound 286], the “Ent. A Max Activity (%)” value is “+ (+ is <300%)”.

In the case of `Cc1cccc(C)c1-c1cc2nc(n1)NS(=O)(=O)c1cccc(c1)C(=O)N1CCN(Cc3ccnnc3)C[C@@H]1CO2` [Compound 287], the “Ent. A Max Activity (%)” value is reported as “+ (+ is <300%)”. On the same count and under the same terms, as for `Cc1cccc(C)c1-c1cc2nc(n1)NS(=O)(=O)c1cccc(c1)C(=O)N1CCN(Cc3ccn[nH]3)C[C@@H]1CO2` [Compound 288], the entry is “+ (+ is <300%)”. On to `Cc1cccc(C)c1-c1cc2nc(n1)NS(=O)(=O)c1cccc(c1)C(=O)N1CCN(C(=O)NCc3ccccc3)C[C@@H]1CO2` [Compound 289], for which the “Ent. A Max Activity (%)” value is “+ (+ is <300%)”. `Cc1cccc(C)c1-c1cc2nc(n1)NS(=O)(=O)c1cccc(c1)C(=O)N1CCN(C(=O)NC34CC5CC(CC(C5)C3)C4)C[C@@H]1CO2` [Compound 290]: the “Ent. A Max Activity (%)” value was “++ (++ is 30-60%)”. As to `Cc1cccc(C)c1-c1cc2nc(n1)NS(=O)(=O)c1cccc(c1)C(=O)N1CCN(C(=O)NC(C)(C)C)C[C@@H]1CO2` [Compound 291], the “Ent. A Max Activity (%)” value is “+++ (+++ is >60%)”. As to `Cc1cccc(C)c1-c1cc2nc(n1)NS(=O)(=O)c1cccc(c1)C(=O)N1CCN(C(=O)NC(C)C(C)C)C[C@@H]1CO2` (stereo partly drawn) [Compound 292], the “Ent. A Max Activity (%)” value is listed as “++ (++ is 30-60%)”. Take `CC(=O)NCCN1CCN2C(=O)c3cccc(c3)S(=O)(=O)Nc3nc(cc(-c4c(C)cccc4C)n3)OC[C@H]2C1` [Compound 294]: the “Ent. A Max Activity (%)” value was “++ (++ is 30-60%)”. Take `Cc1cccc(C)c1-c1cc2nc(n1)NS(=O)(=O)c1cccc(c1)C(=O)N1CCN(CC3CCOCC3)C[C@@H]1CO2` [Compound 295]: the “Ent. A Max Activity (%)” value was “+++ (+++ is >60%)”. On the same count and under the same terms, as for `Cc1cccc(C)c1-c1cc2nc(n1)NS(=O)(=O)c1cccc(c1)C(=O)N1CCN(CCCC(C)(C)C)C[C@@H]1CO2` [Compound 296], the entry is “+++ (+++ is >60%)”; as for `Cc1cccc(C)c1-c1cc2nc(n1)NS(=O)(=O)c1cccc(c1)C(=O)N1CCN(CC3CCCCC3)C[C@@H]1CO2` [Compound 297], “+++ (+++ is >60%)”. With `Cc1cccc(C)c1-c1cc2nc(n1)NS(=O)(=O)c1cccc(c1)C(=O)N1CCN(CCc3ccccc3)C[C@@H]1CO2` [Compound 299], the “Ent. A Max Activity (%)” value is reported as “++ (++ is 30-60%)”. On to `Cc1cccc(C)c1-c1cc2nc(n1)NS(=O)(=O)c1cccc(c1)C(=O)N1CCCC1CO2` (stereo not drawn) [Compound 301], for which the “Ent. A Max Activity (%)” value is given as “+ (+ is <300%)”. For the compound `Cc1cccc(C)c1-c1cc2nc(n1)NS(=O)(=O)c1cccc(c1)C(=O)N1CCN(C(=O)CCN3CCCC3)C(CO2)C1` (stereo not drawn) [Compound 303], the “Ent. A Max Activity (%)” value is “+ (+ is <300%)”. For `Cc1cccc(C)c1-c1cc2nc(n1)NS(=O)(=O)c1cccc(c1)C(=O)N1CCN(C(=O)CC(C)(C)C)C(CO2)C1` (stereo not drawn) [Compound 304], the “Ent. A Max Activity (%)” value is given as “++ (++ is 30-60%)”. Turning to `Cc1cccc(C)c1-c1cc2nc(n1)NS(=O)(=O)c1cccc(c1)C(=O)N1CCN(C(=O)CN(C)C)CC1CO2` (stereo not drawn) [Compound 305], the “Ent. A Max Activity (%)” value is given as “+ (+ is <300%)”. Consider `Cc1cccc(C)c1-c1cc2nc(n1)NS(=O)(=O)c1cccc(c1)C(=O)N1CCN(C(=O)CCN3CCCC3=O)CC1CO2` (stereo not drawn) [Compound 306], for which the “Ent. A Max Activity (%)” value is given as “+ (+ is <300%)”. For the compound `Cc1cccc(C)c1-c1cc2nc(n1)NS(=O)(=O)c1cccc(c1)C(=O)N1CCN(C(=O)CC(C)(C)C)CC1CO2` (stereo not drawn) [Compound 307], the “Ent. A Max Activity (%)” value is on record as “++ (++ is 30-60%)”. For `Cc1cccc(C)c1-c1cc2nc(n1)NS(=O)(=O)c1cccc(c1)C(=O)N1CCN(C(=O)CCN3CCCC3)CC1CO2` (stereo not drawn) [Compound 308], the “Ent. A Max Activity (%)” value is recorded as “+ (+ is <300%)”. Consider `Cc1cccc(C)c1-c1cc2nc(n1)NS(=O)(=O)c1cccc(c1)C(=O)N1CCN(CC3CCCCC3)CC1CO2` (stereo not drawn) [Compound 309], for which the “Ent. A Max Activity (%)” value is reported as “++ (++ is 30-60%)”. As to `Cc1cccc(C)c1-c1cc2nc(n1)NS(=O)(=O)c1cccc(c1)C(=O)N1CCN(CCC(C)(C)C)CC1CO2` (stereo not drawn) [Compound 310], the “Ent. A Max Activity (%)” value is given as “++ (++ is 30-60%)”.

Take `Cc1cccc(C)c1-c1cc2nc(n1)NS(=O)(=O)c1cccc(c1)C(=O)N1CCN(CCc3ccccc3)CC1CO2` (stereo not drawn) [Compound 311]: the “Ent. A Max Activity (%)” value is listed as “++ (++ is 30-60%)”.

For `Cc1cccc(C)c1-c1cc2nc(n1)NS(=O)(=O)c1cccc(c1)C(=O)N1CCN(CC3CCOCC3)CC1CO2` (stereo not drawn) [Compound 312], the “Ent. A Max Activity (%)” value was “++ (++ is 30-60%)”. With `Cc1cccc(C)c1-c1cc2nc(n1)NS(=O)(=O)c1cccc(c1)C(=O)N1CCN(CCCC(C)(C)C)CC1CO2` (stereo not drawn) [Compound 313], the “Ent. A Max Activity (%)” value is “+++ (+++ is >60%)”. For the compound `Cc1cccc(C)c1-c1cc2nc(n1)NS(=O)(=O)c1cccc(c1)C(=O)N1CCN(CCC3(C(F)(F)F)CC3)C(CO2)C1` (stereo not drawn) [Compound 314], the “Ent. A Max Activity (%)” value is “+++ (+++ is >60%)”. On the same count and under the same terms, in the case of `Cc1cccc(C)c1-c1cc2nc(n1)NS(=O)(=O)c1cccc(c1)C(=O)N1CCN(C(=O)OC(C)(C)C)C[C@@H]1CO2` [Compound 315] it was “++ (++ is 30-60%)”; in that of `Cc1cccc(C)c1-c1cc2nc(n1)NS(=O)(=O)c1cccc(c1)C(=O)N1CCN(C)C(CO2)C1` (stereo not drawn) [Compound 316], “+ (+ is <300%)”; in that of `Cc1cccc(C)c1-c1cc2nc(n1)NS(=O)(=O)c1cccc(c1)C(=O)N1CCC(c3ccccc3)C(C1)O2` (stereo not drawn) [Compound 317], “+++ (+++ is >60%)”. On the same count and under the same terms, in the case of `Cc1cccc(C)c1-c1cc2nc(n1)NS(=O)(=O)c1cccc(c1)C(=O)N1Cc3ccccc3[C@@H](C1)O2` [Compound 318] it was “+ (+ is <300%)”; in that of `Cc1cccc(C)c1-c1cc2nc(n1)NS(=O)(=O)c1cccc(c1)C(=O)N1CC(NC(=O)OC(C)(C)C)CC(C1)O2` (stereo not drawn) [Compound 320], “++ (++ is 30-60%)”.

As for `Cc1cccc(C)c1-c1cc2nc(n1)NS(=O)(=O)c1cccc(c1)C(=O)N1CC(CC(C(=O)NCCC(C)(C)C)C1)O2` (stereo not drawn) [Compound 321], the “Ent. A Max Activity (%)” value is “++ (++ is 30-60%)”.
